According to patent US6391882B1, “4,5,6 and 7-indole and indoline derivatitives, their preparation and use” (H. Lundbeck A/S, priority 1998, dated 2002):

Legend:
[1] = biological target: T1, cloned human 5-HT1A receptors (Homo sapiens, UniProt P08908); assay: Inhibition of 3H-5-CT binding to human 5-HT1A receptors; details: cloned human 5-HT1A receptors in transfected HeLa cells (HA7), 15 minutes at 37° C., pH 7.7
T1 construct: expressed in transfected cells; host or cells: HeLa cells (HA7)
T1 sequence (P08908 1-422): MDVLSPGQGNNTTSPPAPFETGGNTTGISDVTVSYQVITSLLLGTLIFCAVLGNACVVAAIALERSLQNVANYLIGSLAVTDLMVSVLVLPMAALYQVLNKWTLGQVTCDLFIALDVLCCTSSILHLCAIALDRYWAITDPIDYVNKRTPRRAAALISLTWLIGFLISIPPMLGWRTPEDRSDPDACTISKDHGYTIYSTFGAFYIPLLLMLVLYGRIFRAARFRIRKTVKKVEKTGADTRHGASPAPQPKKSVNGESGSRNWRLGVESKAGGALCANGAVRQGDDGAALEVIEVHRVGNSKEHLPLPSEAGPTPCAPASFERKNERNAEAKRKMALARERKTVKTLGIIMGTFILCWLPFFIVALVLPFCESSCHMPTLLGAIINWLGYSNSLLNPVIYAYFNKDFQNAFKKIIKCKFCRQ
Description: The affinity of the compounds of the invention to 5-HT1A receptors was determined by measuring the inhibition of binding of a radioactive ligand at 5-HT1A receptors as described in the following test:
Inhibition of ^3H-5-CT Binding to Human 5HT1A Receptors
By this method the inhibition by drugs of the binding of the 5-HT1A agonist ^3H-5-carboxamido tryptamine (^3H-5-CT) to cloned human 5-HT1A receptors stably expressed in transfected HeLa cells (HA7) (Fargin, A. et al, J. Biol. Chem., 1989, 264, 14848) is determined in vitro. The assay was performed as a modification of the method described by Harrington, M. A. et al, J. Pharmacol. Exp. Ther., 1994, 268, 1098. Human 5-HT1A receptors (40 μg of cell homogenate) were incubated for 15 minutes at 37° C. in 50 mM Tris buffer at pH 7.7 in the presence of ^3H-5-CT. Non-specific binding was determined by including 10 μM of metergoline. The reaction was terminated by rapid filtration through Unifilter GF/B filters on a Tomtec Cell Harvester. Filters were counted in a Packard Top Counter.

[2] = biological target: T2, Serotonin reuptake (whole rat brain synaptosomes) (Rattus norvegicus, UniProt P31652); assay: Inhibition of 3H-5-HT uptake into rat brain synaptosomes; type: biochemical
T2 construct: from tissue; host or cells: whole rat brain synaptosomes
Description: Inhibition of ^3H-5-HT Uptake Into Rat Brain Synaptosomes
Using this method the ability of drugs to inhibit the accumulation of ^3H-5-HT into whole rat brain synaptosomes is determined in vitro.

T2 sequence (P31652 whole entry): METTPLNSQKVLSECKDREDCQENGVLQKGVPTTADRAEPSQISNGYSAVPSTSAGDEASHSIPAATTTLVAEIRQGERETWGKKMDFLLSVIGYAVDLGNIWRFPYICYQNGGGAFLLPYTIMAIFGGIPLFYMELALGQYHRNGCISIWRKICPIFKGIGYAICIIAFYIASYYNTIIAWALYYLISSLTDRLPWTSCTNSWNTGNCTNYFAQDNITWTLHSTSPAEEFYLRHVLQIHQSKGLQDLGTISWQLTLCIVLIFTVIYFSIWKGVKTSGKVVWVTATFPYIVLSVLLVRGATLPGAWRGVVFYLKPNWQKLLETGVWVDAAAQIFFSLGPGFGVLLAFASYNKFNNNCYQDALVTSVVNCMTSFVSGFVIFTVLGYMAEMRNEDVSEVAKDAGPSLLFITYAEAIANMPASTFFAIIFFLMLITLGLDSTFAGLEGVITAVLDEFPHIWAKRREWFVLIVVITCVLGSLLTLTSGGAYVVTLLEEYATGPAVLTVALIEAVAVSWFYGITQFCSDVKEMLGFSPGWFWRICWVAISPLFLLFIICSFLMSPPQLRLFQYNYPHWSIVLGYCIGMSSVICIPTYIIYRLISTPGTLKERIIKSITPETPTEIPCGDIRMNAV

For `OCc1cc(N2CCN(CCc3c[nH]c4cc(Cl)ccc34)CC2)c2cc[nH]c2c1` [Compound 3b, 1-(2-(6-Chloro-1H-indol-3-yl)ethyl)-4-(6-hydroxymethyl-1H-indol-4-yl)piperazine], the IC50 [1] was 120 nM, the melting point was 194 to 196 °C and the IC50 [2] was 33 nM.

Work on `OCc1cc(N2CCN(CCc3c[nH]c4ccc(Br)cc34)CC2)c2cc[nH]c2c1` [Compound 3c, 1-(2-(5-Bromo-1H-indol-3-yl)ethyl)-4-(6-hydroxymethyl-1H-indol-4-yl)piperazine] yielded an IC50 [1] of 1000 nM, a melting point of 163 to 165 °C and an IC50 [2] of 46 nM.

For `Clc1ccc2occ(CCN3CCN(c4cccc5[nH]ccc45)CC3)c2c1` [Compound 4t, 1-(2-(5-Chloro-3-benzofuranyl)ethyl)-4-(1H-indol-4-yl)piperazine], the IC50 [1] was 9.4 nM and the IC50 [2] was 99 nM.

`Cc1ccc2c(CCN3CCN(c4cccc5[nH]ccc45)CC3)coc2c1` [Compound 4u, 1-(1H-Indol-4-yl)-4-(2-(6-methyl-3-benzofuranyl)ethyl)piperazine] gave an IC50 [1] of 7 nM and an IC50 [2] of 93 nM.

In the case of `Clc1cccc2c(CCN3CCN(c4cccc5[nH]ccc45)CC3)coc12` [Compound 4v, 1-(2-(7-Chloro-3-benzofuranyl)ethyl)-4-(1H-indol-4-yl)piperazine], the IC50 [1] is reported as 4.3 nM and the IC50 [2] is reported as 4.4 nM.

For `Clc1ccc2c(CCN3CCC(c4cccc5[nH]ccc45)CC3)c[nH]c2c1` [Compound 5a], the IC50 [1] was 14 nM and the IC50 [2] was 19 nM.
